Experiments:
Type in all cases: in vivo
[1] = system: Musca domestica (houseflies); assay: Pest toxicity test, contact test; conditions: 0.1% by weight; milk/sugar; 2 days; flies sprayed directly
[2] = system: Tetranychus telarius (red spider mites, eggs); assay: Pest toxicity test; conditions: 0.1% by weight; French bean; 3 days
Aphis fabae = assay: Pest toxicity test; conditions: 0.1% by weight; broad bean; 2 days
Sugar beet = assay: Further herbicidal test, various rates; conditions: scale 0 to 5 (complete kill)
Onion = assay: Further herbicidal test, various rates; conditions: scale 0 to 5 (complete kill)
[3] = system: Puccinia recondita (wheat); assay: Fungicidal test against foliar disease A (foliage spray plus soil drench); conditions: 100 ppm spray and drench; 10 days
Wheat = assay: Herbicidal test, pre- and post-emergence; conditions: 10 kg/ha; scale 0 to 3 (complete kill)
Lettuce = assay: Herbicidal test, pre- and post-emergence; conditions: 10 kg/ha; scale 0 to 3 (complete kill)
Barley = assay: Further herbicidal test, various rates; conditions: scale 0 to 5 (complete kill)
[4] = system: Plasmopara viticola (vine); assay: Fungicidal test against foliar disease C (foliage spray plus soil drench); conditions: 100 ppm spray and drench; 10 days
[5] = system: Tetranychus telarius (red spider mites, adults); assay: Pest toxicity test; conditions: 0.1% by weight; French bean; 3 days
[6] = system: larvae of the tick Boophilus microplus; assay: Similar test on tick larvae on filter paper without horse serum
Carrot = assay: Further herbicidal test, various rates; conditions: scale 0 to 5 (complete kill)
Rice = assay: Further herbicidal test, various rates; conditions: scale 0 to 5 (complete kill)
[7] = system: Aedes aegypti (mosquito adults); assay: Pest toxicity test; conditions: 0.01% by weight; plywood; 1 day
Maize = assay: Herbicidal test, pre- and post-emergence; conditions: 10 kg/ha; scale 0 to 3 (complete kill)
[8] = system: Pieris brassicae (cabbage white caterpillars); assay: Pest toxicity test; conditions: 0.1% by weight, 2 days
[9] = system: larvae of the blowfly (Lucilia serrata); assay: Insecticidal test on blowfly larvae on treated filter paper; conditions: scale of 1 to 6; filter paper with horse serum
Kale = assay: Further herbicidal test, various rates; conditions: scale 0 to 5 (complete kill)
[10] = system: Plutella maculipennis (diamond back moth larvae); assay: Pest toxicity test; conditions: 0.1% by weight; mustard/paper; 2 days
[11] = system: Phaedon cochleariae (mustard beetles); assay: Pest toxicity test; conditions: 0.1% by weight; mustard/paper; 2 days
Uncinula necator (vine) = assay: Fungicidal test against foliar disease D (foliage spray plus soil drench); conditions: 100 ppm spray and drench; 10 days
Tomato = assay: Herbicidal test, pre- and post-emergence; conditions: 10 kg/ha; scale 0 to 3 (complete kill)
Pea = assay: Further herbicidal test, various rates; conditions: scale 0 to 5 (complete kill)
Megoura viceae = assay: Pest toxicity test; conditions: 0.1% by weight; broad bean; 2 days
[12] = system: Aedes aegypti (mosquito larvae); assay: Pest toxicity test; conditions: 0.01% by weight; water; 1 day
Oat = assay: Further herbicidal test, various rates; conditions: scale 0 to 5 (complete kill)

## O=[N+]([O-])c1ccc(Nc2c(F)c(F)nc(F)c2F)c(C(F)(F)F)c1 [Compound 28, 4-(4-Nitro-2-trifluoromethylanilino)-tetrafluoropyridine]
[1]
  Mortality grading (kill), contact test: 3 (3 represents over 90% kill)
[2]
  Mortality grading (kill): 3 (3 represents over 90% kill)
Aphis fabae
  Mortality grading (kill): 3 (3 represents over 90% kill)
Sugar beet; 1 kg/hectare
  Damage to plants, post-emergence: 5
  Damage to plants, pre-emergence: 5
Sugar beet; 5 kg/hectare
  Damage to plants, post-emergence: 5
  Damage to plants, pre-emergence: 5
Onion; 1 kg/hectare
  Damage to plants, post-emergence: 3
  Damage to plants, pre-emergence: 5
Onion; 5 kg/hectare
  Damage to plants, post-emergence: 0
  Damage to plants, pre-emergence: 5
[3]
  Amount of disease grading, disease A (Table 4): 0 (61 to 100)
Wheat
  Damage to plants, post-emergence: 1
  Damage to plants, pre-emergence: 3
Lettuce
  Damage to plants, post-emergence: 3
  Damage to plants, pre-emergence: 3
Barley; 1 kg/hectare
  Damage to plants, post-emergence: 1
  Damage to plants, pre-emergence: 4
Barley; 5 kg/hectare
  Damage to plants, post-emergence: 0
  Damage to plants, pre-emergence: 5
[4]
  Amount of disease grading, disease C (Table 4): 3 (0 to 5)
[5]
  Mortality grading (kill): 3 (3 represents over 90% kill)
[6]
  times more toxic than lindane: 10 times
Carrot; 1 kg/hectare
  Damage to plants, post-emergence: 3
  Damage to plants, pre-emergence: 4
Carrot; 5 kg/hectare
  Damage to plants, post-emergence: 4
  Damage to plants, pre-emergence: 5
Rice; 1 kg/hectare
  Damage to plants, post-emergence: 0
  Damage to plants, pre-emergence: 4
Rice; 5 kg/hectare
  Damage to plants, post-emergence: 0
  Damage to plants, pre-emergence: 5
[7]
  Mortality grading (kill): 3 (3 represents over 90% kill)
Maize
  Damage to plants, post-emergence: 0
  Damage to plants, pre-emergence: 0
[8]
  Mortality grading (kill): 3 (3 represents over 90% kill)
[9]
  Activity relative to lindane: 6 (6 represents activity 10 times that of the standard)
Kale; 1 kg/hectare
  Damage to plants, post-emergence: 5
  Damage to plants, pre-emergence: 4
Kale; 5 kg/hectare
  Damage to plants, post-emergence: 4
  Damage to plants, pre-emergence: 5
[10]
  Mortality grading (kill): 3 (3 represents over 90% kill)
[11]
  Mortality grading (kill): 3 (3 represents over 90% kill)
Uncinula necator (vine)
  Amount of disease grading, disease D (Table 4): 3 (0 to 5)
Tomato
  Damage to plants, post-emergence: 3
  Damage to plants, pre-emergence: 3
Pea; 1 kg/hectare
  Damage to plants, pre-emergence: 5
Pea; 5 kg/hectare
  Damage to plants, post-emergence: 0
  Damage to plants, pre-emergence: 5
Megoura viceae
  Mortality grading (kill): 3 (3 represents over 90% kill)
[12]
  Mortality grading (kill): 3 (3 represents over 90% kill)
Oat; 1 kg/hectare
  Damage to plants, post-emergence: 2
  Damage to plants, pre-emergence: 4
Oat; 5 kg/hectare
  Damage to plants, post-emergence: 0
  Damage to plants, pre-emergence: 5

— patent US3965109A, “Certain aryl amino pyridines” (priority 1971, dated 1976)
